Common to all, as to format: physicochemical
Data set [1] in a line: Stability of different 7,8-dihydroxyflavone crystal forms (XRPD characterization). The settings on record: for crystal form stability (general statement): performance embodiment, no conditions stated. On the procedure: The stability of different 7,8-dihydroxyflavonoid crystal forms was studied under high temperature (60° C.), high humidity (25° C./92.5% RH), illumination (25° C./4500 Lux), and acceleration (40° C./75% RH) conditions, and samples were taken for XRPD characterization on day 7 and day 15, respectively.

The nature of data set [2]: Dynamic vapor sorption analysis (DVS). The note with it: range of 0%-95% relative humidity; mass gain relative to initial mass. On the procedure: Dynamic vapor sorption and desorption analysis was measured using DVS Intrinsic (SMS, UK). The test was performed in gradient mode with a humidity change of 50%-95%-0%-50%, with a change of 10% per humidity gradient in the range of 0% to 90%. The gradient endpoint was determined by dm/dt; the gradient endpoint lies where the dm/dt was less than 0.002% and maintained for 10 minutes. After the test was completed, the samples were analyzed by XRPD to confirm whether the solid morphology had changed.

Data set [3] can be described thus: Dynamic solubility in biological medium (FaSSIF, FeSSIF, FaSSGF) and water. On the procedure: The 20 mg of 7,8-dihydroxyflavones in different crystal forms were weighed out separately and added into 4.0 mL of biological medium or water, and shaken at a constant temperature of 37° C. for 24 h. Samples were taken at 0.5 h, 2 h and 24 h, respectively, and the sampled solutions were filtered through 0.22 μm aquo-system filter membranes. Signal peak areas of the solutions were measured by HPLC, and finally, concentrations of the compounds in the solutions were calculated based on the peak areas, HPLC standard curves of the raw materials, and the dilution times. In addition, the supernatant at 24 h was taken to test pH, and the residual solid was subjected to the XRPD test. [table]

A short description of data set [4]: Crystal form conversion of comparative crystal forms on drying, at room temperature or on heating.
Setting [5] is: FaSSGF pH 1.6, residual solid after 24 h at 37° C.
The mark [6] stands for this setting: FaSSGF pH 1.6, supernatant at 24 h.
Where [7] appears, read: FaSSIF pH 6.5, residual solid after 24 h at 37° C.
Setting [8] is: FaSSIF pH 6.5, supernatant at 24 h.
The mark [9] stands for this setting: FeSSIF pH 5.0, residual solid after 24 h at 37° C.
[10] abbreviates: FeSSIF pH 5.0, supernatant at 24 h.
The mark [11] stands for this setting: Water, residual solid after 24 h at 37° C.

The source of these data is US20260250260A1, “POLYMORPH OF 7,8-DIHYDROXYFLAVONE, AND PREPARATION METHOD THEREFOR” (HUIANKAI (XIAMEN) PHARMACEUTICAL TECHNOLOGY CO., LTD., priority 2022, published 2026).

Values after ≈ are worked out from the molar mass of the structure shown.

With `O=c1cc(-c2ccccc2)oc2c(O)c(O)ccc12` [Crystal form C, 7,8-dihydroxyflavone], the “Result on day 7 (XRPD)” value in data set [1] (Acceleration 40° C./75% RH), in data set [1] (High humidity 25° C./92.5% RH), in data set [1] (High temperature 60° C.) and in data set [1] (Illumination 25° C./4500 Lux) was “No change” in each case. In addition, the “Result on day 15 (XRPD)” value in data set [1] (Acceleration 40° C./75% RH), in data set [1] (High humidity 25° C./92.5% RH), in data set [1] (High temperature 60° C.) and in data set [1] (Illumination 25° C./4500 Lux) was “No change” each time. In addition, in data set [1], the “crystal form stability (general statement)” value (“crystal form stability” below) was “stable and does not suffer from crystal transformation”. In addition, the “weight gain in the dynamic vapor sorption plot” value (from here on “weight gain”) in data set [2] is “less than 0.1%”. For the same molecule, the “Solubility 0.5 h” value in data set [3] (FaSSGF pH 1.6, 37° C.) was 2.5 µg/mL (≈ 9.83 µM); in data set [3] (FaSSIF pH 6.5, 37° C.) it was 9.0 µg/mL (≈ 35.4 µM); in data set [3] (FeSSIF pH 5.0, 37° C.) it was 33.5 µg/mL (≈ 132 µM); in data set [3] (Water, 37° C.), 2.6 µg/mL (≈ 10.2 µM). The “Solubility 2 h” value in data set [3] (FaSSGF pH 1.6, 37° C.) worked out at 2.2 µg/mL (≈ 8.65 µM); in data set [3] (FaSSIF pH 6.5, 37° C.) it was 10.2 µg/mL (≈ 40.1 µM); in data set [3] (FeSSIF pH 5.0, 37° C.) it was 33.9 µg/mL (≈ 133 µM); in data set [3] (Water, 37° C.) it was 3.1 µg/mL (≈ 12.2 µM). Also, the “Solubility 24 h” value turned out to be 2.4 µg/mL (≈ 9.44 µM) in data set [3] (FaSSGF pH 1.6, 37° C.); 9.8 µg/mL (≈ 38.5 µM) in data set [3] (FaSSIF pH 6.5, 37° C.); 33.2 µg/mL (≈ 131 µM) in data set [3] (FeSSIF pH 5.0, 37° C.); 3.3 µg/mL (≈ 13 µM) in data set [3] (Water, 37° C.). For the same molecule, the “Residual solid XRPD” value in data set [3] (setting [5]), in data set [3] (setting [7]), in data set [3] (setting [9]) and in data set [3] (setting [11]) was “Crystal form C” each time. Moreover, the “Final pH” value is listed as 1.6 in data set [3] (setting [6]); 6.5 in data set [3] (setting [8]); 5.0 in data set [3] (setting [10]); 5.5 in data set [3] (Water, supernatant at 24 h).
For `O=c1cc(-c2ccccc2)oc2c(O)c(O)ccc12` [Crystal form N, 7,8-dihydroxyflavone], the “Result on day 7 (XRPD)” value in data set [1] (High temperature 60° C.) is given as “No change”. Also, the “Result on day 15 (XRPD)” value in data set [1] (High temperature 60° C.) is given as “No change”. In addition, the “crystal form stability” value in data set [1] is “stable and does not suffer from crystal transformation”. The “weight gain” value in data set [2] is reported as “less than 0.1%”. Further, the “Solubility 0.5 h” value in data set [3] (FaSSGF pH 1.6, 37° C.) worked out at 13.6 µg/mL (≈ 53.5 µM); in data set [3] (FaSSIF pH 6.5, 37° C.), 35.8 µg/mL (≈ 141 µM); in data set [3] (FeSSIF pH 5.0, 37° C.), 111.9 µg/mL (≈ 440 µM); in data set [3] (Water, 37° C.) it was 15.1 µg/mL (≈ 59.4 µM). For the same molecule, the “Solubility 2 h” value in data set [3] (FaSSGF pH 1.6, 37° C.) was found to be 18.7 µg/mL (≈ 73.6 µM); in data set [3] (FaSSIF pH 6.5, 37° C.), 38.7 µg/mL (≈ 152 µM); in data set [3] (FeSSIF pH 5.0, 37° C.) it was 114.2 µg/mL (≈ 449 µM); in data set [3] (Water, 37° C.), 11.8 µg/mL (≈ 46.4 µM). In addition, the “Solubility 24 h” value worked out at 16.1 µg/mL (≈ 63.3 µM) in data set [3] (FaSSGF pH 1.6, 37° C.); 36.5 µg/mL (≈ 144 µM) in data set [3] (FaSSIF pH 6.5, 37° C.); 107.6 µg/mL (≈ 423 µM) in data set [3] (FeSSIF pH 5.0, 37° C.); 3.1 µg/mL (≈ 12.2 µM) in data set [3] (Water, 37° C.). Moreover, the “Residual solid XRPD” value in data set [3] (setting [5]) is “Crystal form N”; in data set [3] (setting [7]), “Crystal form N”; in data set [3] (setting [9]), “Crystal form N”; in data set [3] (setting [11]), “Crystal form C”. Besides, the “Final pH” value in data set [3] (setting [6]) was 1.6; in data set [3] (setting [8]), 6.4; in data set [3] (setting [10]), 5.0; in data set [3] (Water, supernatant at 24 h), 5.2.
On to `O=c1cc(-c2ccccc2)oc2c(O)c(O)ccc12` [Crystal form P, 7,8-dihydroxyflavone], for which the “Result on day 7 (XRPD)” value in data set [1] (Acceleration 40° C./75% RH), in data set [1] (High humidity 25° C./92.5% RH), in data set [1] (High temperature 60° C.) and in data set [1] (Illumination 25° C./4500 Lux) was “No change” in each case. In addition, the “Result on day 15 (XRPD)” value in data set [1] (Acceleration 40° C./75% RH), in data set [1] (High humidity 25° C./92.5% RH), in data set [1] (High temperature 60° C.) and in data set [1] (Illumination 25° C./4500 Lux) was “No change” in each case. In addition, the “crystal form stability” value in data set [1] was “stable and does not suffer from crystal transformation”. Further, the “weight gain” value in data set [2] is listed as “less than 0.1%”. Besides, the “Solubility 0.5 h” value in data set [3] (FaSSGF pH 1.6, 37° C.) was found to be 8.6 µg/mL (≈ 33.8 µM); in data set [3] (FaSSIF pH 6.5, 37° C.) it was 24.3 µg/mL (≈ 95.6 µM); in data set [3] (FeSSIF pH 5.0, 37° C.), 74.5 µg/mL (≈ 293 µM); in data set [3] (Water, 37° C.), 11.2 µg/mL (≈ 44.1 µM). Also, the “Solubility 2 h” value in data set [3] (FaSSGF pH 1.6, 37° C.) amounted to 8.6 µg/mL (≈ 33.8 µM); in data set [3] (FaSSIF pH 6.5, 37° C.), 25.9 µg/mL (≈ 102 µM); in data set [3] (FeSSIF pH 5.0, 37° C.), 74.3 µg/mL (≈ 292 µM); in data set [3] (Water, 37° C.) it was 10.6 µg/mL (≈ 41.7 µM). Moreover, the “Solubility 24 h” value stood at 5.6 µg/mL (≈ 22 µM) in data set [3] (FaSSGF pH 1.6, 37° C.); 20.5 µg/mL (≈ 80.6 µM) in data set [3] (FaSSIF pH 6.5, 37° C.); 71.2 µg/mL (≈ 280 µM) in data set [3] (FeSSIF pH 5.0, 37° C.); 10.6 µg/mL (≈ 41.7 µM) in data set [3] (Water, 37° C.). The “Residual solid XRPD” value in data set [3] (setting [5]), in data set [3] (setting [7]), in data set [3] (setting [9]) and in data set [3] (setting [11]) was “Crystal form P” each time. Further, the “Final pH” value in data set [3] (setting [6]) was found to be 1.6; in data set [3] (setting [8]) it was 6.4; in data set [3] (setting [10]), 5.0; in data set [3] (Water, supernatant at 24 h), 4.6.
Consider `O=c1cc(-c2ccccc2)oc2c(O)c(O)ccc12` [crystal form A, 7,8-dihydroxyflavone], for which the crystal form conversion result in data set [4] (heated to 130° C.) was “convert to mixed crystals containing the crystal form F”; in data set [4] (heated to 160° C.), “convert to mixed crystals containing the crystal form F and the crystal form J”; in data set [4] (under sufficient drying) it was “convert to the crystal form N”.
Regarding `O=c1cc(-c2ccccc2)oc2c(O)c(O)ccc12` [crystal form B, 7,8-dihydroxyflavone], the crystal form conversion result was “convert to mixed crystals containing the crystal form F and the crystal form J” in data set [4] (at 180° C.); “tend to convert to the crystal form C” in data set [4] (at room temperature); “some characteristic peaks of the crystal form J will appear” in data set [4] (heated to 110° C.).
On to `O=c1cc(-c2ccccc2)oc2c(O)c(O)ccc12` [crystal form E, 7,8-dihydroxyflavone], for which the crystal form conversion result in data set [4] (at room temperature) is “convert to the crystal form N”.
Regarding `O=c1cc(-c2ccccc2)oc2c(O)c(O)ccc12` [crystal form F, 7,8-dihydroxyflavone], the crystal form conversion entry in data set [4] (at room temperature) is “convert to the crystal form B”; in data set [4] (heated to 220° C.), “convert to mixed crystals of the crystal form J and the crystal form P”.
As to `O=c1cc(-c2ccccc2)oc2c(O)c(O)ccc12` [crystal form G, 7,8-dihydroxyflavone], the crystal form conversion result in data set [4] (heated to 140° C.) is reported as “convert to the crystal form T which has a small amount of crystal form J”.
`O=c1cc(-c2ccccc2)oc2c(O)c(O)ccc12` [crystal form H, 7,8-dihydroxyflavone]: the crystal form conversion entry in data set [4] (at room temperature) is “convert to other crystal forms”.
Take `O=c1cc(-c2ccccc2)oc2c(O)c(O)ccc12` [crystal form K, 7,8-dihydroxyflavone]: the crystal form conversion entry in data set [4] (heated to 150° C. and then cooled to room temperature) was “convert to mixed crystals of the crystal form F and the crystal form J”.
For `O=c1cc(-c2ccccc2)oc2c(O)c(O)ccc12` [crystal form M, 7,8-dihydroxyflavone], in data set [4] (at room temperature), the crystal form conversion result is given as “convert to the crystal form C”.
Same read-out and setting: the same measure for `O=c1cc(-c2ccccc2)oc2c(O)c(O)ccc12` [crystal form O, 7,8-dihydroxyflavone]: “convert to the crystal form C”.
Same read-out and setting: the same measure for `O=c1cc(-c2ccccc2)oc2c(O)c(O)ccc12` [crystal form Q, 7,8-dihydroxyflavone]: “convert to the crystal form C”; for `O=c1cc(-c2ccccc2)oc2c(O)c(O)ccc12` [crystal form R, 7,8-dihydroxyflavone]: “cannot exist at room temperature for a long period”.
As for `O=c1cc(-c2ccccc2)oc2c(O)c(O)ccc12` [crystal form S, 7,8-dihydroxyflavone], in data set [4] (at room temperature), the crystal form conversion entry was “convert to the crystal form C”.
Same read-out and setting: next, `O=c1cc(-c2ccccc2)oc2c(O)c(O)ccc12` [crystal form T, 7,8-dihydroxyflavone]: “cannot exist at room temperature for a long period”.
